{"source": "patent US6465479B1", "about": "“Pyridomorphinans and use thereof” (Southern Research Institute, priority 1999, dated 2002)", "key": {"μ receptors": {"target": "T1, μ receptors (Rattus norvegicus, UniProt P33535)", "T1 construct": "from tissue; host or cells: rat brain membranes", "T1 sequence (P33535 whole entry)": "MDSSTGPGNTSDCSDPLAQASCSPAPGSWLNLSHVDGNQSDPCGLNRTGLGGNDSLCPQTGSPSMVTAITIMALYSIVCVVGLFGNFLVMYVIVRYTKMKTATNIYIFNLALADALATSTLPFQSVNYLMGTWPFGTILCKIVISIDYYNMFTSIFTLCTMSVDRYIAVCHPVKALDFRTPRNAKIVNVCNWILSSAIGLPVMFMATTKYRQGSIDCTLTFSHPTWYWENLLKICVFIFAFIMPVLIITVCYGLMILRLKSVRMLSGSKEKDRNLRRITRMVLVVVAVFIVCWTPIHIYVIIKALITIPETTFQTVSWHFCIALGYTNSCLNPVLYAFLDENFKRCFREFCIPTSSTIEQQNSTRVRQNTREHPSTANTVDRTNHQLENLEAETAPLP", "assay": "μ opioid receptor binding, displacement of [3H]DAMGO in rat brain membranes", "conditions": "displacement of [3H]DAMGO (1.4-3.0 nM), read-out: K1 (nM) ± SEM μ"}, "mouse vas deferens (MVD) [1]": {"test_system": "mouse vas deferens (MVD)", "assay": "Opioid agonist activity in electrically stimulated mouse vas deferens (MVD)", "assay_type": "cell-based", "conditions": "percentage inhibition of contraction at 1 μM", "description": "The opioid agonist and antagonist potencies were determined on the electrically stimulated mouse vas deferens (MVD) and guinea pig ileum (GPI) smooth muscle preparations."}, "guinea pig ileum (GPI)": {"test_system": "guinea pig ileum (GPI)", "assay": "Opioid agonist activity in electrically stimulated guinea pig ileum (GPI)", "assay_type": "cell-based"}, "male ICR mice [2]": {"test_system": "male ICR mice", "assay": "55° C. warm-water tail-flick test, antinociception", "assay_type": "in vivo, mouse", "conditions": "for agonist character in tail-flick, i.c.v.: icv injection", "description": "(§1) In the following examples, male ICR mice(20-30 grams) were used. […] The solution was brought up to approximately pH 5.5 with 1.74 M NaOH and then the final volume adjusted with distilled water. […] Additional compounds used in these studies were dissolved in distilled water (i.c.v. injections) or physiological saline (i.p. injections).\n(§2) Antinociception was assessed using either the 55° C. warm-water tail-flick test or the acetic-acid writhing assay. […] Each mouse was first tested for baseline latency by immersing its tail in the water and recording the time to response. Mice not responding within 5 sec were excluded from further testing. Mice were then administered the test compound and tested for antinociception at 10, 20, 30, 45, 60 and 90 min post-injection. A maximum score was assigned (100%) to animals not responding within 15 sec to avoid tissue damage. Antinociception was calculated by the following formula: % antinociception=100×(test latency-control latency)/(15-control latency). For the acetic acid writhing test, mice were injected i.p. with 0.9% acetic acid. They were then placed in a clear Plexiglas observation jar and the number of abdominal writhes recorded for 15 min (Mogil et al., Heritability of nociception I: responses of 11 inbred mouse strains on 12 measures of nociception. Pain 80:67-82,1999). Percent antinociception was calculated using the formula: % MPE (maximum possible effect)=100−((#writhes individual mouse/mean # writhes control group)×100)."}, "male ICR mice [3]": {"test_system": "male ICR mice", "assay": "Acetic acid writhing assay, antinociception, tolerance and antagonist pretreatment", "assay_type": "in vivo, mouse", "conditions": "for Repeated Injections A50 (95% C.I.) i.c.v. / Repeated Injections A50 (95% C.I.) i.p. / Control A50 (95% C.I.) i.p. / Control A50 (95% C.I.) i.c.v.: acetic acid writhing; for Repeated Injections A50 (95% C.I.) i.c.v. / Repeated Injections A50 (95% C.I.) i.p.: after A90 dose ×2 daily, 3 days; for Control A50 (95% C.I.) i.p. / Control A50 (95% C.I.) i.c.v.: control mice", "description": "as §1, §2\nControl mice received a vehicle injection (5 μl distilled water, i.c.v., −24 hr)."}, "[4]": {"target": "T2, delta-2 ([D-Ala2, Glu4]deltorphin) (Mus musculus, UniProt P32300)", "T2 construct": "male ICR mice(20-30 grams) were used; from tissue; host or cells: whole animal (male ICR mice), tail-flick test", "T2 sequence (P32300 whole entry)": "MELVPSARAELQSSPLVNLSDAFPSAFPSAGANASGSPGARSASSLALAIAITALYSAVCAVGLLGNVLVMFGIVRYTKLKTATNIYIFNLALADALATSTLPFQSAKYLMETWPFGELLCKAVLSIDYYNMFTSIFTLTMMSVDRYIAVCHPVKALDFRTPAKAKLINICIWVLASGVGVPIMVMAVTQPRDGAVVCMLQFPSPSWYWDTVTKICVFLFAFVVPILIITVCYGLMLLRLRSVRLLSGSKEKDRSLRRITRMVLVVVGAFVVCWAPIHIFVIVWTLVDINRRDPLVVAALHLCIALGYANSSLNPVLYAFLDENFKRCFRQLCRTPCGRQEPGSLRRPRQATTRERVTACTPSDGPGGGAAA", "assay": "Antagonism of delta-2 agonist [D-Ala2, Glu4]deltorphin antinociception in the 55° C. tail-flick test", "assay_type": "in vivo", "description": "as §2\n(§3) Mice were then injected with A90 doses of selective mu, delta or kappa agonists and antinociception was assessed in the 55° C. tail-flick test."}, "delta-1 (DPDPE)": {"target": "T3, delta-1 (DPDPE) (Mus musculus, UniProt P32300)", "T3 construct": "male ICR mice(20-30 grams) were used; from tissue; host or cells: whole animal (male ICR mice), tail-flick test", "T3 sequence (P32300 whole entry)": "as above", "assay": "Antagonism of delta-1 agonist DPDPE antinociception in the 55° C. tail-flick test", "assay_type": "in vivo", "description": "as §2, §3"}, "mu (DAMGO)": {"target": "T4, mu (DAMGO) (Mus musculus, UniProt P42866)", "T4 construct": "male ICR mice(20-30 grams) were used; from tissue; host or cells: whole animal (male ICR mice), tail-flick test", "T4 sequence (P42866 whole entry)": "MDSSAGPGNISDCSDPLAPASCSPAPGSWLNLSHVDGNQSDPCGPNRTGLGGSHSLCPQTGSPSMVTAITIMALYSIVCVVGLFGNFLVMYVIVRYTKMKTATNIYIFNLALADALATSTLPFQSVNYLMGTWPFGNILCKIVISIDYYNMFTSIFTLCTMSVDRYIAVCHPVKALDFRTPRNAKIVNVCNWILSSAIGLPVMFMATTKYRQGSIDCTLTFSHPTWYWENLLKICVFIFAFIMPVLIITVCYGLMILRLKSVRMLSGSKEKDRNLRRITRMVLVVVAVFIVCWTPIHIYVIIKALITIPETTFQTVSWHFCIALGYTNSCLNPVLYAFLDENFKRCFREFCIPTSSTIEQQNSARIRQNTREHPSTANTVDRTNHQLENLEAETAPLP", "assay": "Antagonism of mu agonist DAMGO antinociception in the 55° C. tail-flick test", "assay_type": "in vivo", "description": "as §2, §3"}, "kappa (U69,593)": {"target": "T5, kappa (U69,593) (Mus musculus, UniProt P33534)", "T5 construct": "male ICR mice(20-30 grams) were used; from tissue; host or cells: whole animal (male ICR mice), tail-flick test", "T5 sequence (P33534 whole entry)": "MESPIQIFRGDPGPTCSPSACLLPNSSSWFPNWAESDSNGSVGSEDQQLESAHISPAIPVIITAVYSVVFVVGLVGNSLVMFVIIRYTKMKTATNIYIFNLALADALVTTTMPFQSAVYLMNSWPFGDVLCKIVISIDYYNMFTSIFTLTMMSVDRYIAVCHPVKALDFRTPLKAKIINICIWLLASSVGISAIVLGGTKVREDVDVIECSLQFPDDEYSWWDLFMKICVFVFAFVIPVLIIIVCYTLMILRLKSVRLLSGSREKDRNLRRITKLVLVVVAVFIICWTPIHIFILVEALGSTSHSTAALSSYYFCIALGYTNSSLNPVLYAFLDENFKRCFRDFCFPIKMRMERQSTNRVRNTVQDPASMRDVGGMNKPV", "assay": "Antagonism of kappa agonist U69,593 antinociception in the 55° C. tail-flick test", "assay_type": "in vivo", "description": "as §2, §3"}, "δ receptors": {"target": "δ receptors (Rattus norvegicus, UniProt P33533)", "sequence (P33533 whole entry)": "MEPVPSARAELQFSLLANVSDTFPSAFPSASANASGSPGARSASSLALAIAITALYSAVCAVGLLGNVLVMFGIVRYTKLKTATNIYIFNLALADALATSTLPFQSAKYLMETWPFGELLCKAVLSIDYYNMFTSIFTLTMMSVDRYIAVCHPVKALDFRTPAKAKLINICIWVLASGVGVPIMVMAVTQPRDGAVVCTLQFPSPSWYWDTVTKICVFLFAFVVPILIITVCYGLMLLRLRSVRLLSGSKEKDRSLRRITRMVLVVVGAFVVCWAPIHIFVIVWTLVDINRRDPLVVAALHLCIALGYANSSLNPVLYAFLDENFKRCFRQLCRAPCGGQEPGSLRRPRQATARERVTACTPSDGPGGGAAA", "conditions": "read-out: K1 (nM) ± SEM δ; displacement of [3H]DADLE (1.3-2.0 nM), rat brain membranes, 100 nM DAMGO to block μ sites"}, "κ receptors": {"target": "κ receptors (Cavia porcellus, UniProt P41144)", "sequence (P41144 whole entry)": "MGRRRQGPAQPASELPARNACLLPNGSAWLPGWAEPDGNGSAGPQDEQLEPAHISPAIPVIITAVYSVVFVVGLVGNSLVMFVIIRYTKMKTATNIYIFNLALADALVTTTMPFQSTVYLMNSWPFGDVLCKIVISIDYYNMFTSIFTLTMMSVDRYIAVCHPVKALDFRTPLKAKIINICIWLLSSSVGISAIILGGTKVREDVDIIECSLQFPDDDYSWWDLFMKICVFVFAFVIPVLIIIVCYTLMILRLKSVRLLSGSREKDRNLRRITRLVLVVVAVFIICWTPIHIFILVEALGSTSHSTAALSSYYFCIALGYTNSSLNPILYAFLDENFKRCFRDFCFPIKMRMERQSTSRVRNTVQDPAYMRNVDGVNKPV", "conditions": "read-out: K1 (nM) ± SEM K1 (κ); displacement of [3H]U69,593 (1.2-[…]), guinea pig brain membranes"}, "mice": {"test_system": "mice", "assay": "Overt signs of toxicity in mice during the antinociceptive studies", "conditions": "dose ranges tested"}, "morphine pretreated mice": {"test_system": "morphine pretreated mice", "assay": "Acute morphine physical dependence, precipitated withdrawal (vertical jumps)"}, "[5]": {"target": "T6, δ opioid receptor (DPDPE) in the MVD preparation (Mus musculus, UniProt P32300)", "T6 construct": "electrically stimulated mouse vas deferens (MVD) and guinea pig ileum (GPI) smooth muscle preparations; from tissue; host or cells: mouse vas deferens", "T6 sequence (P32300 whole entry)": "as the sequence (P32300 whole entry) above", "conditions": "data from published sources; cited from earlier work"}, "mouse vas deferens (MVD) [6]": {"test_system": "mouse vas deferens (MVD)", "conditions": "percentage inhibition of contraction at 1 μM; data from published sources; cited from earlier work"}, "[7]": {"test_system": "μ opioid receptor (PL-017) in the GPI preparation", "conditions": "data from published sources; cited from earlier work"}}, "note": "Several values for one entry are separate records, joined by “and”; a condition that tells them apart may be missing. Equal entries are not always repeated. Entries after “also recorded” stand apart in the source; their conditions may differ. Where two headings read alike, the source gives them in different places."}
{"smiles": "Oc1ccc2c3c1O[C@H]1c4ncc(-c5ccc(Cl)cc5)cc4C[C@@]4(O)[C@@H](C2)N(CC2CC2)CC[C@]314", "note": "[Compound 6d, 5′-(4-Chlorophenyl)-17-(Cyclopropylmethyl)-6,7-didehydro-3,14-dihydroxy-4,5α-epoxypyrido[2′3′:6,7]morphinan]", "values": [{"measurement": "Ki", "setting": "μ receptors", "value": "51 ± 8", "unit": "nM"}, {"measurement": "agonist activity MVD % max resp", "setting": "mouse vas deferens (MVD) [1]", "value": 21, "unit": "%"}, {"measurement": "agonist character in the GPI", "setting": "guinea pig ileum (GPI)", "value": "full agonist"}, {"measurement": "IC50", "setting": "guinea pig ileum (GPI); Cavia porcellus, agonist", "value": 163, "unit": "nM"}, {"measurement": "% MPE tail flick", "setting": "male ICR mice [2]; 100 nmol i.c.v., mice", "value": 40.3, "unit": "% MPE"}, {"measurement": "A50 tail-flick i.c.v.", "setting": "male ICR mice [2]; 55° C. tail-flick, mice", "value": "greater than 100 nmol"}, {"measurement": "agonist character in tail-flick, i.c.v.", "setting": "male ICR mice [2]; 55° C. tail-flick", "value": "only partial agonist effects"}, {"measurement": "antinociceptive effect in tail flick, i.p.", "setting": "male ICR mice [2]; i.p., doses up to 60 mg/kg", "value": "no measurable antinociceptive effect"}, {"measurement": "number of writhes", "setting": "male ICR mice [3]; 30 nmol i.c.v. (A90), vs vehicle, p<0.001", "value": "significantly decreased the number of writhes"}, {"measurement": "Repeated Injections A50 (95% C.I.) i.c.v.", "setting": "male ICR mice [3]", "value": "10.9 nmol (7.2-16.5"}, {"measurement": "Repeated Injections A50 (95% C.I.) i.p.", "setting": "male ICR mice [3]", "value": "3.85 mg/kg (0.9-16.0"}, {"measurement": "Control A50 (95% C.I.) i.p.", "setting": "male ICR mice [3]", "value": "4.6 mg/kg (2.5-8.6"}, {"measurement": "agonist character in acetic acid writhing, i.c.v.", "setting": "male ICR mice [3]; icv injection", "value": "full agonist activity"}, {"measurement": "blockade of antinociception by delta or kappa antagonist pretreatment", "setting": "male ICR mice [3]; naltrindole 20 mg/kg i.p. -20 min (p>0.99) or nor-BNI 1 nmol i.c.v. -24 hr (p>0.13), 6d 30 nmol i.c.v.", "value": "not by naltrindole (p>0.99) or nor-BNI"}, {"measurement": "blockade of antinociception by mu antagonist pretreatment", "setting": "male ICR mice [3]; β-FNA 19 nmol i.c.v. -24 hr, 6d 30 nmol i.c.v., p<0.002", "value": "blocked by pre-treatment with β-FNA"}, {"measurement": "antagonism of delta-2 agonist, in words", "setting": "[4]; i.p.", "value": "potently antagonized"}, {"measurement": "ID50 (mg/kg) against [D-Ala2, Glu4]deltorphin", "setting": "[4]; i.p. pretreatment -20 min, A90 i.c.v. agonist 20 nmol", "value": 3.4, "unit": "mg/kg"}, {"measurement": "ID50 (mg/kg) against DPDPE", "setting": "delta-1 (DPDPE); i.p. pretreatment -20 min, A90 i.c.v. agonist 30 nmol", "value": 15.3, "unit": "mg/kg"}, {"measurement": "antagonism of delta-1 agonist DPDPE, in words", "setting": "delta-1 (DPDPE); i.p., compared with delta-2", "value": "much less potent"}, {"measurement": "ID50 (mg/kg) against DAMGO", "setting": "mu (DAMGO); i.p. pretreatment -20 min, A90 i.c.v. agonist 0.1 nmol", "value": 28.9, "unit": "mg/kg"}, {"measurement": "antagonism of mu agonist DAMGO, in words", "setting": "mu (DAMGO); i.p., compared with delta-2", "value": "much less potent"}, {"measurement": "ID50 (mg/kg) against U69,593", "setting": "kappa (U69,593); i.p. pretreatment -20 min, A90 i.c.v. agonist 60 nmol, tail-flick", "value": ">60", "unit": "mg/kg"}, {"measurement": "effect on antinociception of kappa agonist U69,593, in words", "setting": "kappa (U69,593); i.p., doses of up to 60 mg/kg", "value": "did not affect"}, {"measurement": "Ki", "setting": "δ receptors", "value": "2.2 ± 0.16", "unit": "nM"}, {"measurement": "Ki", "setting": "κ receptors", "value": "20 ± 1.04", "unit": "nM"}, {"measurement": "overt signs of toxicity", "setting": "mice", "value": "did not display any overt signs of toxicity"}, {"measurement": "vertical jumps precipitated in morphine pretreated mice", "setting": "morphine pretreated mice; 10 mg/kg i.p., 4 hr after morphine 100 mg/kg, vs naloxone 10 mg/kg i.p., p<0.001", "value": "significantly less vertical jumps than naloxone injection"}, {"measurement": "attenuation of naloxone precipitated withdrawal (jumps)", "setting": "morphine pretreated mice; coadministration 6d 10 mg/kg i.p. + naloxone 10 mg/kg i.p., p<0.05", "value": "significantly less jumps than naloxone alone; also recorded: attenuated opioid withdrawal"}]}
{"smiles": "CN1CC[C@]23c4c5ccc(O)c4O[C@H]2[C@@H](O)C=C[C@H]3[C@H]1C5", "note": "[morphine, reference compound]", "values": [{"measurement": "A50 tail-flick i.c.v.", "setting": "male ICR mice [2]; 55° C. tail-flick, mice", "value": "2.94 nmol and 1.7 nmol"}, {"measurement": "A50 tail-flick i.p.", "setting": "male ICR mice [2]; 55° C. tail-flick, i.p., mice", "value": 8.0, "unit": "mg/kg"}, {"measurement": "agonist character in tail-flick, i.c.v.", "setting": "male ICR mice [2]; 55° C. tail-flick", "value": "full agonist effect"}, {"measurement": "Repeated Injections A50 (95% C.I.) i.c.v.", "setting": "male ICR mice [3]", "value": "0.05 nmol (0.03-0.08"}, {"measurement": "Control A50 (95% C.I.) i.c.v.", "setting": "male ICR mice [3]", "value": 0.004, "unit": "nmol"}, {"measurement": "Control A50 (95% C.I.) i.c.v.", "setting": "male ICR mice [3]; listed as Morphine", "value": "0.004 nmol (0.003-0.006"}, {"measurement": "Repeated Injections A50 (95% C.I.) i.p.", "setting": "male ICR mice [3]", "value": "4.78 mg/kg (3.7-6.2"}, {"measurement": "Control A50 (95% C.I.) i.p.", "setting": "male ICR mice [3]", "value": "2.2 mg/kg (1.8-2.7"}]}
{"smiles": "Oc1ccc2c3c1O[C@H]1c4[nH]c5ccccc5c4C[C@@]4(O)[C@@H](C2)N(CC2CC2)CC[C@]314", "note": "[naltrindole]", "values": [{"measurement": "Ki", "setting": "δ receptors", "value": "0.41 ± 0.09", "unit": "nM"}, {"measurement": "Ki", "setting": "κ receptors", "value": "35.8 ± 4", "unit": "nM"}, {"measurement": "antagonist activity DPDPE (δ) Ke", "setting": "[5]", "value": 0.49, "unit": "nM"}, {"measurement": "agonist activity MVD % max resp", "setting": "mouse vas deferens (MVD) [6]", "value": 16, "unit": "%"}, {"measurement": "antagonist activity PL-017 (μ) Ke", "setting": "[7]", "value": 43, "unit": "nM"}]}
